Legend:
Format in all cases: cell-based
HeLa = experiment: Endocytosis pathway analysis with inhibitors; conditions: inhibitor pre-incubated 30 min (400 mM sucrose, 30 μM EIPA), then 100 μM Py-FFK-Az, 5 μM Py-FFK-Biotin, 400 nM streptavidin-FITC 3 h, flow cytometry, n = 3
Procedure: We next examined the cellular localization of Supra‐LYTAC using CLSM. […] To understand the lysosomal trafficking mechanism, we conducted inhibitor studies. […]
fluorometer (F-7000, Hitachi). The ratio for I1 band and I3 band was plotted to obtain CAC […]
S.1.12. Transmission electron microscopy study. To confirm the peptide self-assembly nanostructures, 50 μM of peptide solution in water was prepared. Then, 8 μL was dropped onto a copper grid. After the droplet is fully dried, it was repeated once more. After that, negative staining was achieved using 2 wt% uranyl acetate solution for 10 min in RT. After washing using DI water, the self-assembly morphology was visualized using JEM-1400 by JEOL and […]
To visualize peptide-protein nanocomplex, streptavidin stock solution was added into the solution consisting of 50 μM peptide solution (mixture of Py-FFK-Az and Py-FFK-Biotin in 20:1 ratio) to obtain 400 nM and 10 μM solutions. Then, TEM sample was prepared with the same protocol of peptide self-assembly visualization.
S.1.13. Circular dichroism spectroscopy. 100 μM peptide solution was initially prepared.
The solution was transferred into quartz cell with 1 mm path length (Hellma), and CD spectrum was recorded using CD spectrometer (J-815, JASCO) under the flow of nitrogen.
S.1.14. FT-IR spectroscopy. 1 mM peptide solution was prepared for FT-IR spectroscopy.
The solution was measured using L1600300 Spectrum TWO LiTa FT-IR spectrometer by […]
S.1.15. Cell culture. HeLa, 4T1, and NIH/3T3 were supplied from Korean Cell Line Bank. […]
After growing for 24 h, Py-FFK-Az, Py-FFK-Biotin, Py-GGK-Az, Py-GGK-Biotin was treated with different concentrations. […] After 4 h incubation, MTT formazan was solubilized by SDS solution, and monitored using SpectraMax M5e Multi Mode Microplate Reader by Molecular Devices.
S.1.17. […] After that, the cells were washed and analyzed using FACSverse (Becton Dickinson And Company).
S.1.18. […] After that, the cells were washed and analyzed using confocal laser scanning microscopy (LSM780 and 880 by ZEISS). […]

PD‐L1 [1] = molecular target: T1, PD‐L1 (Homo sapiens, UniProt Q9NZQ7); experiment: Western blot analysis for PD-L1 degradation, HeLa; conditions: 24 h, 1:1 ratio (100 μM each)
T1 construct: endogenous in cells; host or cells: HeLa
Procedure: (§1) We next evaluated PD‐L1 degradation using Western blot (WB) analysis. […] Initially, we verified BMS‐conjugated peptides were non‐toxic by MTT assay (Figure S37, Supporting Information). We then assessed PD‐L1 degradation in HeLa cells after 24‐h treatment with 100 µM Py‐FFK‐Az and varying concentrations of Py‐FFK‐BMS. […] To further assess the effect for Py‐FFK‐Az, we conducted WB analysis with 100 µM Py‐FFK‐BMS at varying concentration for Py‐FFK‐Az. […] PD‐L1 degradation was inhibited by co‐treatment with CAIX inhibitor, confirming the role of CAIX‐mediated endocytosis in lysosomal uptake (Figure S39, Supporting Information). To further validate lysosome‐dependent protein degradation, we conducted WB analysis with chloroquine, a lysosomal inhibitor. […] Furthermore, PD‐L1 fluorescence was restored when chloroquine was co‐administered with the 1:1 Py‐FFK‐Az:Py‐FFK‐BMS mixture, confirming lysosomal involvement in PD‐L1 degradation. […]
(§2) μM Py-FFK-Az and 5μM Py-FFK-Biotin was co-incubated with 400 nM streptavidin-FITC. […]
(§3) as counterstaining agent. IF signals were analyzed using confocal laser scanning microscopy […]
(§4) S.1.22. […] Tumor growth was monitored using the digital caliper. We calculated the tumor volume using the formula [volume = (tumor length) × (tumor width)2/2]. […] The tumor size and body weight were measured and […]
(§5) S.1.23. […] All the data are expressed as mean ± standard deviation (SD). […]

PD‐L1 [2] = molecular target: T1, PD‐L1; experiment: Immunofluorescence analysis of PD-L1, HeLa; conditions: 24 h
Procedure: as §1, §2, §3, §4, §5

T1 sequence (Q9NZQ7 19-290): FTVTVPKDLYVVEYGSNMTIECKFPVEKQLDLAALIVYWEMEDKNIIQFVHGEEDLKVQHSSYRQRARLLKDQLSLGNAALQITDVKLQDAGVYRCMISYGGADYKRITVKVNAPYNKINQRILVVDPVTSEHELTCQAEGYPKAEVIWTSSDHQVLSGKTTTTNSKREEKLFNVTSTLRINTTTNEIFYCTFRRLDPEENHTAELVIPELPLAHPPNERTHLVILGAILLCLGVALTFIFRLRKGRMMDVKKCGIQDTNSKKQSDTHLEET

effect of inhibitor co-treatment on PD-L1 degradation by Py-FFK-Az and Py-FFK-BMS (WB) (PD‐L1 [1])	PD-L1 immunofluorescence on chloroquine co-administration with 1:1 Py-FFK-Az:Py-FFK-BMS (PD‐L1 [2])	SMILES	effect of inhibitor on POI uptake by Supra-LYTAC (HeLa)
		CCN(c1nc(N)c(C(=O)NC(=N)N)nc1Cl)C(C)C [EIPA]	no effect
inhibited		CC(=O)Nc1nnc(S(N)(=O)=O)s1 [acetazolamide]	significantly reduced
significantly reduced PD‐L1 degradation	restored	CCN(CC)CCCC(C)Nc1ccnc2cc(Cl)ccc12 (stereo not drawn) [chloroquine]	
		OC[C@H]1O[C@@](CO)(O[C@H]2O[C@H](CO)[C@@H](O)[C@H](O)[C@H]2O)[C@@H](O)[C@@H]1O [sucrose]	substantially reduced

Source: publication PMC12245127, “Cancer Specific CAIX‐Targeting Supramolecular Lysosome‐Targeting Chimeras (Supra‐LYTAC) for Targeted Protein Degradation” (Advanced Science, 2025)
